Several values for one entry are separate records, joined by “and”; a condition that tells them apart may be missing. Equal values may be shown once. Read-outs that look alike come from different tables or passages of the source.
Assays:
[1] = biological target: T1, Electric eel acetylcholinesterase (AChE) (Electrophorus electricus, UniProt O42275); assay: biochemical; conditions: for IC50: electric eel AChE, mean ± SEM of triplicate experiments; for SI, selective index (BChE/AChE): calculated from IC50 of BChE/AChE
T1 construct: purchased Sigma-Aldrich Co. (St. Louis, MO, USA)
T1 sequence (O42275 24-633): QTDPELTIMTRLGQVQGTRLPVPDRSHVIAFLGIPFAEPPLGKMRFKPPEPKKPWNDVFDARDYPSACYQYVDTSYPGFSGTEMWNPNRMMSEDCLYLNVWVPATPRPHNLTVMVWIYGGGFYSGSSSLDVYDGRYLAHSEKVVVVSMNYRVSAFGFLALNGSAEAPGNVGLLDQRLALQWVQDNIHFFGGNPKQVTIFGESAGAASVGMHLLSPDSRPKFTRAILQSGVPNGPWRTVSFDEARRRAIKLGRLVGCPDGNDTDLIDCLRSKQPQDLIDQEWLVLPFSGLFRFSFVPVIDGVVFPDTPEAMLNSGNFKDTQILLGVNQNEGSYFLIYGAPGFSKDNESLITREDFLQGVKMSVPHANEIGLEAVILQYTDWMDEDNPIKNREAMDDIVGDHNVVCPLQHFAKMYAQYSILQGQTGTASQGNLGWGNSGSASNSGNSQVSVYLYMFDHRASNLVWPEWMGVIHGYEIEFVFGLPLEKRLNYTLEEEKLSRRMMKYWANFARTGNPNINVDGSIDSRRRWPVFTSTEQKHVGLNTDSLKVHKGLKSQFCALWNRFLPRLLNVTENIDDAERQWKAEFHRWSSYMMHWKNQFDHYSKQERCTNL
Text: (§1) Electric eel acetylcholinesterase (AChE, EC3.1.1.7), horse serum butyrylcholinesterase (BChE, EC 3.1.1.8), acetylthiocholine iodide (ACh), butyrylthioline chloride (BCh), 5,5′-dithobis [2-nitrobenzoic acid] […] The BACE1 FREF assay kit (β-secretase) was purchased from Pan Vera Co. (Madison, WI, USA). ONOO^− was purchased from Molecular Probes Cayman (Ann Arbor, MI, USA). All other chemicals and solvents used were purchased from E. Merck, Fluka, or Sigma- Aldrich, unless otherwise stated.
The inhibitory activity of the isolated coumarins toward ChE was measured using the spectrophotometric method developed by Ellman et al.. ACh and BCh were used as substrates to assay the inhibition of AChE and BChE, respectively. Each reaction mixture consisted of 140 µL sodium phosphate buffer (pH 8.0), 20 µL of test sample solution, and 20 µL of either AChE or BChE solution, which were then combined and incubated for 15 min at room temperature. […] Reactions were initiated upon addition of 10 µL of DTNB and 10 µL of either ACh or BCh. Enzymatic hydrolysis, mediated by AChE or BChE, was monitored according to the formation of yellow 5-thio-2-nitrobenzoate anions at 412 nm for 15 min, which were generated by the reaction of DTNB with thiocholine released from ACh or BCh. All reactions were performed in 96-well plates in triplicate, and recorded using a microplate spectrophotometer (Molecular Devices, Sunnyvale, CA, USA).

[2] = biological target: T2, human recombinant BACE1 (Homo sapiens, UniProt P56817); assay: In vitro BACE1 FRET enzyme assay; assay type: biochemical
T2 construct: purchased PanVera Co. (Madison, WI, USA)
T2 sequence (P56817 46-501): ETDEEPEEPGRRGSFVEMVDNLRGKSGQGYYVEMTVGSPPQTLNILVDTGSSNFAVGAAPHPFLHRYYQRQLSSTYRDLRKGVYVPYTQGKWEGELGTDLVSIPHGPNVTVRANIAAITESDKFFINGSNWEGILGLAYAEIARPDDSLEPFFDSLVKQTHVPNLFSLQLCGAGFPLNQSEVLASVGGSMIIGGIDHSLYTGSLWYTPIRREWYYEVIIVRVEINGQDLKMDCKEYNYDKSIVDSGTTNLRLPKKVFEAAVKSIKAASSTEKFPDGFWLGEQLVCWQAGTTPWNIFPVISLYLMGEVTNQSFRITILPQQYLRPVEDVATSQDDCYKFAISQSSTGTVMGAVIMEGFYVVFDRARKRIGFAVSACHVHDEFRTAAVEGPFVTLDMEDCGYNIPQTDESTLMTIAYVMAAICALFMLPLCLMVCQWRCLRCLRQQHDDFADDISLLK
Experimental: A BACE1 fluorescence resonance energy transfer (FRET) assay kit (β-secretase, human recombinant) was purchased from PanVera Co. (Madison, WI, USA). The assay was carried out according to the provided manual with slight modifications, as described in a previous study.

[3] = biological target: T2, human recombinant BACE1; assay: Kinetics of BACE1 inhibition (Lineweaver–Burk and Dixon plots); assay type: biochemical; conditions: for BACE1 inhibition type: determined using Dixon and Lineweaver–Burk plots; for Ki: determined using a Dixon plot, substrate 750, 375, 250 nM, read-out: BACE1 inhibition constant (Ki)
Experimental: Complementary kinetic methods were employed: Lineweaver–Burk and Dixon plots. The mechanism of BACE1 inhibition was evaluated by monitoring the effects of different concentrations of substrate (750, 375, and 250 nM). The test concentrations of 2 in BACE1 inhibition kinetic experiments were 0, 0.4, 2.0, and 10 µM, while those for 3 were 0, 25, 50, and 100 µM. Inhibition constants (Ki) were determined by interpreting the Dixon plot, where the value on the x-axis represents Ki.

[4] = tested on: ONOO−-mediated tyrosine nitration of BSA; assay: Inhibition of ONOO−-mediated protein tyrosine nitration (Western blot, 3-nitrotyrosine antibody); assay type: biochemical; conditions: pretreatment at 12.5–100 μM
Experimental: To determine the inhibitory effect of 2 against ONOO^−-induced tyrosine nitration, Western blot analysis was performed using a 3-nitrotyrosine antibody.
Figure 5 Effect of 2 on nitration of BSA by ONOO^−. A mixture of the compound and BSA was incubated at 25 °C for 10 min. After incubation of ONOO^− at 25 °C for 10 min, reactants were resolved by electrophoresis in a 10% SDS-polyacrylamide gel.
We evaluated ONOO^−-mediated protein tyrosine nitration using the method of Ali et al., with slight modifications. The tested concentration range of 2 was 12.5–100 µM.

[5] = biological target: T3, horse serum butyrylcholinesterase (BChE) (Equus caballus, UniProt P81908); assay: In vitro ChE enzyme assay (Ellman), BChE; assay type: biochemical; conditions: mean ± SEM of triplicate experiments
T3 construct: horse serum butyrylcholinesterase (BChE, EC 3.1.1.8); purchased Sigma-Aldrich Co. (St. Louis, MO, USA); host or cells: horse serum
T3 sequence (P81908 whole entry): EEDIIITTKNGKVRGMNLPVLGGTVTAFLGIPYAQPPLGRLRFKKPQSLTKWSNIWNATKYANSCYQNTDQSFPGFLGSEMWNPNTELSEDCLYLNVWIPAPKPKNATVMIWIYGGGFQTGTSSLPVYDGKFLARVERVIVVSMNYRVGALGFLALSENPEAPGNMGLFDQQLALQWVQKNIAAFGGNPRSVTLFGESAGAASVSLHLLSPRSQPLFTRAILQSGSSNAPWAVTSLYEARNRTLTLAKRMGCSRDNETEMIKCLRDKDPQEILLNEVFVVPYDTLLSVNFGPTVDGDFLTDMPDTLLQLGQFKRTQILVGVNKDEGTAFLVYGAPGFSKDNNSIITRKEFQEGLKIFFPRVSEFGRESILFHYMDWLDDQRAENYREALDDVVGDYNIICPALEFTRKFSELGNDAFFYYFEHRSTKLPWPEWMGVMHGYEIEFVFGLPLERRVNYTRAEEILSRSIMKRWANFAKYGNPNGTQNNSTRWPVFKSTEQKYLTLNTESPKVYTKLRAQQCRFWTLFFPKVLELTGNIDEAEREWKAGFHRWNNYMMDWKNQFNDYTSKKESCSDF
Text: as §1
The inhibitory activity of the isolated coumarins toward ChE was measured using the spectrophotometric method developed by Ellman et al.. ACh and BCh were used as substrates to assay the inhibition of AChE and BChE, respectively. Each reaction mixture consisted of 140 µL sodium phosphate buffer (pH 8.0), 20 µL of test sample solution, and 20 µL of either AChE or BChE solution, which were then combined and incubated for 15 min at room temperature. […] Enzymatic hydrolysis, mediated by AChE or BChE, was monitored according to the formation of yellow 5-thio-2-nitrobenzoate anions at 412 nm for 15 min, which were generated by the reaction of DTNB with thiocholine released from ACh or BCh. All reactions were performed in 96-well plates in triplicate, and recorded using a microplate spectrophotometer (Molecular Devices, Sunnyvale, CA, USA).

[6] = human recombinant BACE1, mean ± SEM of triplicate experiments, read-out: IC50 BACE1

| Structure (SMILES) | IC50 ([1]; IC50 AChE) [µM] | IC50 [2] [µM] | BACE1 inhibition type [3] | Ki [3] [µM] | Inhibition of ONOO−-mediated tyrosine nitration [4] | IC50 [2, 6] [µM] | SI, selective index (BChE/AChE) [1] | IC50 ([1]; read-out: IC50 AChE) | IC50 [5] |
| --- | --- | --- | --- | --- | --- | --- | --- | --- | --- |
| COc1ccc2cc3[n+](cc2c1OC)CCc1cc2c(cc1-3)OCO2 [Berberine, berberine, reference compound] | < 0.32 | – | – | – | – | – | – | – | – |
| O=c1ccc2ccc(O)cc2o1 [Compound 1, umbelliferone] | – | 169 ± 2.17 | – | – | – | – | – | – | – |
| O=Cc1cc2ccc(=O)oc2cc1O [Compound 2, 6-formyl umbelliferone] | – | – | noncompetitive-type inhibition | 2.27 | significant dose-dependent inhibition | 1.31 ± 0.01 | 1.67 | 16.7 to 19.1 µM and 16.7 µM | 27.9 to 87.7 µM and 27.9 µM |
| O=Cc1c(O)ccc2ccc(=O)oc12 [Compound 3, 8-formyl umbelliferone] | – | – | noncompetitive-type inhibition | 22.2 | – | 39.82 ± 0.31 | 4.58 | 16.7 to 19.1 µM and 19.1 µM | 27.9 to 87.7 µM and 87.7 µM |

Reference: PMC6151429 (Molecules : A Journal of Synthetic Chemistry and Natural …, 2017)
